Laboratory results: PubChem BioAssay (NCI)
Several values for one entry are separate records, joined by “and”; a condition that tells them apart may be missing. Identical values can stand only once.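 A five-concentration, 48-hour dose response in 96-well plates underlies each endpoint, interpolated linearly between surrounding concentrations. GI50: concentration for 50% inhibition of growth. Definition used: TGI = concentration required for complete inhibition of growth.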

What was measured:
Experiment in all cases: NCI tumour cell line growth inhibition, 48 h
SK-MEL-2 melanoma = tested on: SK-MEL-2 melanoma
SF-295 CNS = tested on: SF-295 CNS
NCI/ADR-RES ovarian = tested on: NCI/ADR-RES ovarian
OVCAR-8 ovarian = tested on: OVCAR-8 ovarian
RXF 393 renal = tested on: RXF 393 renal
SF-268 CNS = tested on: SF-268 CNS
HOP-92 NSCLC = tested on: HOP-92 NSCLC
UACC-257 melanoma = tested on: UACC-257 melanoma
SK-MEL-28 melanoma = tested on: SK-MEL-28 melanoma
SK-OV-3 ovarian = tested on: SK-OV-3 ovarian

Structure (SMILES) | GI50 (SK-MEL-2 melanoma) | TGI (SK-MEL-2 melanoma) | GI50 (SF-295 CNS) | TGI (SF-295 CNS) | GI50 (NCI/ADR-RES ovarian) [µM] | TGI (NCI/ADR-RES ovarian) | GI50 (OVCAR-8 ovarian) | TGI (OVCAR-8 ovarian) | GI50 (RXF 393 renal) | TGI (RXF 393 renal) | GI50 (SF-268 CNS) | TGI (SF-268 CNS) [µM] | GI50 (HOP-92 NSCLC) | TGI (HOP-92 NSCLC) | GI50 (UACC-257 melanoma) [µM] | TGI (UACC-257 melanoma) | GI50 (SK-MEL-28 melanoma) | TGI (SK-MEL-28 melanoma) [µM] | GI50 (SK-OV-3 ovarian) [µM] | TGI (SK-OV-3 ovarian)
N#Cc1cc(S(=O)(=O)Nc2nc3cc(Cl)ccc3o2)c(SCc2ccccc2)cc1Cl | 12.4 µM | 24.8 µM | 14.5 µM | 28 µM | 13.8 | 26.7 µM | 14.2 µM | 27.3 µM | 12500 nM | 25 µM | 14.7 µM | 32.2 | 10500 nM | 23.5 µM | 13 | 25.7 µM | 12.8 µM | 25.4 |  | 
COc1cc(-c2nn(-c3cccc(NC(=O)CCNc4ccc(N5CCOCC5)cc4)c3)cc2-c2ccncc2)ccc1Cl | 2.07 µM | 5.64 µM | 2.09 µM | 26 µM | 4.09 | > 100 µM | 2.92 µM | 16.1 µM | 2050 nM | 8.08 µM | 4.42 µM | > 100 | 2370 nM | 8.01 µM | 2.38 | 8.72 µM | 3.13 µM | > 100 | 5.02 | > 100 µM
COc1cc2c(c(OC)c1OC)C(=O)NCCC2 |  | > 100 µM |  | > 100 µM |  | > 100 µM |  | > 100 µM |  | > 100 µM |  | > 100 |  | > 100 µM |  | > 100 µM |  | > 100 |  | > 100 µM
CCOC(=O)/C(=C\c1ccc2ccccc2c1)P(=O)(OCC)OCC | 2.16 µM | 5.22 µM | 4.76 µM | 16.2 µM | 3.15 | 11.2 µM | 3.26 µM | 13.2 µM | 1820 nM | 3.46 µM | 3.28 µM | 14.3 | 2440 nM | 5.31 µM | 2.59 | 7.14 µM | 2.95 µM | 8.06 | 8.84 | 20.9 µM
NCCCN=c1ccc2c3c1c(O)c1c(O)ccc(=O)c1c3[nH]n2CCNCCO | 3.28 µM and 1.08 µM | 8.18 µM and 4.08 µM | 1.06 µM | 7.44 µM and 39.9 µM | 20.1 | 25 µM and > 236 µM | 3.34 µM and 1.15 µM | 15.7 µM and 20 µM | 3030 nM and 1210 nM | 8.38 µM and 5.39 µM |  | 6.51 | 1840 nM and 409 nM | 10.3 µM and 2.34 µM | 4.32 | 14.1 µM and 105 µM | 5.48 µM and 6.41 µM |  | 1.51 | 16.2 µM and 55.7 µM
O=[N+]([O-])/C=C/c1ccc(Cl)cc1[N+](=O)[O-] | 12.3 µM | 39.7 µM | 6.72 µM | 21.6 µM | 3.18 | 77.7 µM | 3.88 µM | 13.6 µM | 2360 nM | 4.02 µM | 3.34 µM | > 100 | 13200 nM | 27.5 µM | 11.9 | 24.9 µM | 14 µM | 27.7 | 12.1 | 24.5 µM
CC(=O)OCC1OC(n2c3c(cc(C#N)c2=S)CCCC3)C(OC(C)=O)C(OC(C)=O)C1OC(C)=O (stereo not given) | > 100 µM and 27 µM | > 100 µM | > 100 µM and 19.7 µM | > 100 µM and 48.4 µM |  | > 100 µM |  | > 100 µM | > 100000 nM and 20400 nM | > 100 µM and 63.7 µM | > 100 µM and 22.9 µM | > 100 | > 100000 nM and 32400 nM | > 100 µM |  | > 100 µM |  | > 100 |  | 
